Reference: PubChem BioAssay AID256 (DTP/NCI, 2004)
Values joined by “and” are separate entries in the source; they are usually repeats but may differ in a detail not shown here. Equal entries are not always repeated. Toxic doses and inconclusive results are not listed. Rule for the calls: active = survival T/C of 150% or more; inactive = T/C below 125% in these data. Residues, ends and D or L forms follow the SMILES beside them.

Tested on: CD2F1 mice, L1210 leukemia ip, survival T/C
Experiment: NCI In Vivo Anticancer Drug Screen. Data for tumor model L1210 Leukemia (intraperitoneal) in CD2F1 (CDF1) mice
Details: higher = longer survival
Method: The antitumor activity of compounds was measured in mice bearing transplantable tumors. Survival or tumor size were measured and the results are expressed as the measurement made in the treated group (T) divided by the measurement made in the vehicle treated control group (C). The tumor model used in this assay is L1210 Leukemia (intraperitoneal) in CD2F1 (CDF1) mice

[1] = endpoint: mean survival time, dose: 100.0 mg/kg/injection, schedule: Q01DX001 (ip), vehicle: saline
[2] = endpoint: mean survival time, dose: 200.0 mg/kg/injection, schedule: Q01DX001 (ip), vehicle: saline
[3] = endpoint: mean survival time, dose: 400.0 mg/kg/injection, schedule: Q01DX001 (ip), vehicle: saline
[4] = endpoint: mean survival time, dose: 100.0 mg/kg/injection, schedule: Q01DX009 (ip), vehicle: saline with Tween-80
[5] = endpoint: mean survival time, dose: 100.0 mg/kg/injection, schedule: Q04DX003 (ip), vehicle: saline with Tween-80
[6] = endpoint: mean survival time, dose: 200.0 mg/kg/injection, schedule: Q04DX003 (ip), vehicle: saline with Tween-80
[7] = endpoint: mean survival time, dose: 400.0 mg/kg/injection, schedule: Q04DX003 (ip), vehicle: saline with Tween-80
[8] = endpoint: mean survival time, dose: 100.0 mg/kg/injection, schedule: Q04DX002 (ip), vehicle: saline with Tween-80
[9] = endpoint: mean survival time, dose: 200.0 mg/kg/injection, schedule: Q04DX002 (ip), vehicle: saline with Tween-80
[10] = endpoint: mean survival time, dose: 400.0 mg/kg/injection, schedule: Q04DX002 (ip), vehicle: saline with Tween-80

Measured: T/C

Clc1cc(Cl)c(OCC#CI)c(Cl)c1Cl
inactive: endpoint: mean survival time, dose: 50.0 mg/kg/injection, schedule: Q01DX001 (ip), vehicle: carboxymethylcellulose (CMC) 100 % of control | endpoint: mean survival time, dose: 100.0 mg/kg/injection, schedule: Q01DX001 (ip), vehicle: carboxymethylcellulose (CMC) 100 % of control | endpoint: mean survival time, dose: 200.0 mg/kg/injection, schedule: Q01DX001 (ip), vehicle: carboxymethylcellulose (CMC) 100 % of control | endpoint: mean survival time, dose: 400.0 mg/kg/injection, schedule: Q01DX001 (ip), vehicle: carboxymethylcellulose (CMC) 103 % of control

COC1OC2COC(c3ccccc3)OC2/C(=N/O)C1[n+]1ccccc1 (centres undefined)
inactive: endpoint: mean survival time, dose: 25.0 mg/kg/injection, schedule: Q01DX001 (ip), vehicle: saline with Tween-80 94 % of control | endpoint: mean survival time, dose: 50.0 mg/kg/injection, schedule: Q01DX001 (ip), vehicle: saline with Tween-80 107 % of control | endpoint: mean survival time, dose: 100.0 mg/kg/injection, schedule: Q01DX001 (ip), vehicle: saline with Tween-80 98 % of control and 102 % of control

CC(=O)OCCC/C(=C\c1ccc(Cl)cc1)[N+](=O)[O-]
inactive: [1] 100 % of control | [2] 102 % of control | [3] 98 % of control

CCCCCCC(=O)[O][Hg][c]1ccccc1
inactive: endpoint: mean survival time, dose: 9.38 mg/kg/injection, schedule: Q01DX001 (ip), vehicle: saline 105 % of control | endpoint: mean survival time, dose: 18.75 mg/kg/injection, schedule: Q01DX001 (ip), vehicle: saline 100 % of control | endpoint: mean survival time, dose: 37.5 mg/kg/injection, schedule: Q01DX001 (ip), vehicle: saline 103 % of control

CS(=O)(=O)/C(C#N)=N/O
inactive: endpoint: mean survival time, dose: 50.0 mg/kg/injection, schedule: Q01DX001 (ip), vehicle: saline 103 % of control | [1] 98 % of control | [2] 101 % of control

CCC1=CC(C)(C)CC(C)=C1 (tested in a mixture with another compound)
inactive: endpoint: mean survival time, dose: 50.0 mg/kg/injection, schedule: Q01DX009 (ip), vehicle: saline with Tween-80 110 % of control | [4] 100 % of control | [5] 96 % of control | [6] 96 % of control | [7] 93 % of control

CC(C)OC(=O)COc1ccc(F)cc1F
inactive: [8] 92 % of control | [9] 95 % of control | [10] 89 % of control

C=NCC#N
inactive: [5] 106 % of control | [6] 101 % of control

CSc1nc(SC)c2c3c(N)ncnc3n(C3OC(CO)C(O)C3O)c2n1 (centres undefined)
inactive: endpoint: mean survival time, dose: 12.5 mg/kg/injection, schedule: Q01DX005 (ip), vehicle: other 107 % of control | endpoint: mean survival time, dose: 25.0 mg/kg/injection, schedule: Q01DX005 (ip), vehicle: other 121 % of control | endpoint: mean survival time, dose: 100.0 mg/kg/injection, schedule: Q01DX005 (ip), vehicle: other 119 % of control | endpoint: mean survival time, dose: 250.0 mg/kg/injection, schedule: Q01DX005 (ip), vehicle: other 121 % of control

CC(=O)Nc1ccc(/C=C2\N=C(c3cccc([N+](=O)[O-])c3)OC2=O)cc1
inactive: [8] 100 % of control | [9] 100 % of control | [10] 91 % of control

Nc1ccc2ccc(N)cc2c1
inactive: endpoint: median survival time, dose: 25.0 mg/kg/injection, schedule: Q01DX009 (ip), vehicle: saline with Tween-80 98 % of control | endpoint: median survival time, dose: 50.0 mg/kg/injection, schedule: Q01DX009 (ip), vehicle: saline with Tween-80 100 % of control | endpoint: median survival time, dose: 100.0 mg/kg/injection, schedule: Q01DX009 (ip), vehicle: saline with Tween-80 100 % of control | endpoint: median survival time, dose: 200.0 mg/kg/injection, schedule: Q01DX009 (ip), vehicle: saline with Tween-80 105 % of control

COc1ccc2c(c1OC)C(=O)OC2c1cc(Br)c(O)c(C2OC(=O)c3c2ccc(OC)c3OC)c1 (centres undefined)
inactive: [4] 101 % of control | [5] 92 % of control | endpoint: mean survival time, dose: 200.0 mg/kg/injection, schedule: Q01DX009 (ip), vehicle: saline with Tween-80 101 % of control | [6] 93 % of control | endpoint: mean survival time, dose: 400.0 mg/kg/injection, schedule: Q01DX009 (ip), vehicle: saline with Tween-80 98 % of control | [7] 90 % of control

COc1ccc(NC(=O)Nc2ccc(C(C)C)cc2)cc1
inactive: [5] 93 % of control | [6] 91 % of control | [7] 95 % of control

COC(=O)c1cc(-c2ccccc2)n(-c2ccccc2)c1-c1ccccc1
inactive: endpoint: mean survival time, dose: 100.0 mg/kg/injection, schedule: Q01DX001 (ip), vehicle: Klucel (hydroxypropylcellulose) (HPC) 94 % of control | [8] 90 % of control | endpoint: mean survival time, dose: 200.0 mg/kg/injection, schedule: Q01DX001 (ip), vehicle: Klucel (hydroxypropylcellulose) (HPC) 89 % of control | [9] 87 % of control | endpoint: mean survival time, dose: 400.0 mg/kg/injection, schedule: Q01DX001 (ip), vehicle: Klucel (hydroxypropylcellulose) (HPC) 89 % of control | [10] 94 % of control

NC(N)=NCCCC(N)C(=O)NC(CCC(=O)O)C(=O)O (stereo not drawn) (H-Arg-Glu-OH; configuration not given here)
inactive: endpoint: mean survival time, dose: 25.0 mg/kg/injection, schedule: Q01DX009 (ip), vehicle: saline 91 % of control | endpoint: mean survival time, dose: 50.0 mg/kg/injection, schedule: Q01DX009 (ip), vehicle: saline 94 % of control | endpoint: mean survival time, dose: 100.0 mg/kg/injection, schedule: Q01DX009 (ip), vehicle: saline 89 % of control | endpoint: mean survival time, dose: 200.0 mg/kg/injection, schedule: Q01DX009 (ip), vehicle: saline 89 % of control | endpoint: mean survival time, dose: 400.0 mg/kg/injection, schedule: Q01DX009 (ip), vehicle: saline 93 % of control

CCCN(CCC)S(=O)(=O)c1ccc(NC(=O)OC(CC)c2ccco2)cc1 (centres undefined)
inactive: [1] 94 % of control | [2] 95 % of control | [3] 94 % of control

CC(=O)Oc1ccc([N+](=O)[O-])cc1[N+](=O)[O-]
inactive: endpoint: mean survival time, dose: 25.0 mg/kg/injection, schedule: Q04DX002 (ip), vehicle: Klucel (hydroxypropylcellulose) (HPC) 93 % of control

O=C(Nc1ncnc2c1[nH]c(=O)n2C1OC(CO)C2OC21)c1ccccc1 (centres undefined)
inactive: endpoint: mean survival time, dose: 12.5 mg/kg/injection, schedule: Q01DX005 (ip), vehicle: distilled water + Tween-80 92 % of control | endpoint: mean survival time, dose: 25.0 mg/kg/injection, schedule: Q01DX005 (ip), vehicle: distilled water + Tween-80 100 % of control | endpoint: mean survival time, dose: 50.0 mg/kg/injection, schedule: Q01DX005 (ip), vehicle: distilled water + Tween-80 95 % of control | endpoint: mean survival time, dose: 100.0 mg/kg/injection, schedule: Q01DX005 (ip), vehicle: distilled water + Tween-80 90 % of control | endpoint: mean survival time, dose: 200.0 mg/kg/injection, schedule: Q01DX005 (ip), vehicle: distilled water + Tween-80 93 % of control

Nc1ncc2ccccc2c1-c1ccc(NC(=O)CCCl)cc1
inactive: endpoint: mean survival time, dose: 25.0 mg/kg/injection, schedule: Q04DX003 (ip), vehicle: DMSO 98 % of control | endpoint: mean survival time, dose: 50.0 mg/kg/injection, schedule: Q04DX003 (ip), vehicle: DMSO 102 % of control | endpoint: mean survival time, dose: 100.0 mg/kg/injection, schedule: Q04DX003 (ip), vehicle: DMSO 95 % of control | endpoint: mean survival time, dose: 200.0 mg/kg/injection, schedule: Q04DX003 (ip), vehicle: DMSO 102 % of control | endpoint: mean survival time, dose: 400.0 mg/kg/injection, schedule: Q04DX003 (ip), vehicle: DMSO 90 % of control

CCCn1c2ccccc2c2ccccc21
inactive: endpoint: mean survival time, dose: 100.0 mg/kg/injection, schedule: Q04DX003 (ip), vehicle: Klucel (hydroxypropylcellulose) (HPC) 91 % of control | endpoint: mean survival time, dose: 200.0 mg/kg/injection, schedule: Q04DX003 (ip), vehicle: Klucel (hydroxypropylcellulose) (HPC) 105 % of control | endpoint: mean survival time, dose: 400.0 mg/kg/injection, schedule: Q04DX003 (ip), vehicle: Klucel (hydroxypropylcellulose) (HPC) 96 % of control
